Laboratory results: patent publication US20040127395A1 (priority 2002, published 2004)

Target: human histamine H4 receptor (Homo sapiens, UniProt Q9H3N8)
Experiment: biochemical
Settings: not given

Ki	Structure (SMILES)
19 nM	CN1CCN(C(=O)c2cc3cc(O)ccc3[nH]2)CC1 [(5-Hydroxy-1H-indol-2-yl)-(4-methyl-piperazin-1-yl)-methanone]
124 nM	CN1CCN(C(=O)c2cc3ccc(Cl)cc3[nH]2)CC1 [(6-Chloro-1H-indol-2-yl)-(4-methyl-piperazin-1-yl)-methanone]
18 nM	CN1CCN(C(=O)c2cc3cc(F)ccc3[nH]2)CC1 [(5-Fluoro-1H-indol-2-yl)-(4-methyl-piperazin-1-yl)-methanone]
188 nM	CN1CCN(C(=O)c2cc3ccc(Br)cc3[nH]2)CC1 [(6-Bromo-1H-indol-2-yl)-(4-methyl-piperazin-1-yl)-methanone]
32.5 nM	CN1CCN(C(=O)c2cc3ccc(O)cc3[nH]2)CC1 [(6-Hydroxy-1H-indol-2-yl)-(4-methyl-piperazin-1-yl)-methanone]
25 nM	O=C(c1cc2cc(Cl)ccc2[nH]1)N1CCN(CCO)CC1 [(5-Chloro-1H-indol-2-yl)-[4-(2-hydroxy-ethyl)-piperazin-1-yl]-methanone]
6.6 nM	Cc1cccc2cc(C(=O)N3CCN(C)CC3)[nH]c12 [(7-Methyl-1H-indol-2-yl)-(4-methyl-piperazin-1-yl)-methanone]
10 nM	O=C(c1cc2cc(Cl)ccc2[nH]1)N1CCNCC1 [(5-Chloro-1H-indol-2-yl)-piperazin-1-yl-methanone]
47 nM	CN1CCN(C(=O)c2cc3cccc(O)c3[nH]2)CC1 [(7-Hydroxy-1H-indol-2-yl)-(4-methyl-piperazin-1-yl)-methanone]
7 nM	CN1CCN(C(=O)c2cc3cccc(N)c3[nH]2)CC1 [(7-Amino-1H-indol-2-yl)-(4-methyl-piperazin-1-yl)-methanone]
43 nM	Nc1cccc2cc(C(=O)N3CCNCC3)[nH]c12 [(7-Amino-1H-indol-2-yl)-piperazin-1-yl-methanone]
36 nM	C[C@H]1CN(C(=O)c2cc3cc(Cl)ccc3[nH]2)CCN1 [(5-Chloro-1H-indol-2-yl)-((S)-3-methyl-piperazin-1-yl)-methanone]
55 nM	CN1CCN(C(=O)c2cc3cccc(Br)c3[nH]2)CC1 [(7-Bromo-1H-indol-2-yl)-(4-methyl-piperazin-1-yl)-methanone]
23 nM	CN1CCN(C(=O)c2cc3cccc(Cl)c3[nH]2)CC1 [(7-Chloro-1H-indol-2-yl)-(4-methyl-piperazin-1-yl)-methanone]
145 nM	COc1cccc(-c2ccc3[nH]c(C(=O)N4CCN(C)CC4)cc3c2)c1 [[5-(3-Methoxy-phenyl)-1H-indol-2-yl]-(4-methyl-piperazin-1-yl)-methanone]
1 nM	Cc1cc(Cl)cc2cc(C(=O)N3CCN(C)CC3)[nH]c12 [(5-Chloro-7-methyl-1H-indol-2-yl)-(4-methyl-piperazin-1-yl)-methanone]
11 nM	Cc1ccc2[nH]c(C(=O)N3CCN(C)CC3)cc2c1 [(5-Methyl-1H-indol-2-yl)-(4-methyl-piperazin-1-yl)-methanone]

More lines, now with the values behind:

Structure (SMILES)	Ki
CN1CCN(C(=O)c2cc3cc(Br)ccc3o2)CC1 [(5-Bromo-benzofuran-2-yl)-(4-methyl-piperazin-1-yl)-methanone]	95 nM
CC1CN(C(=O)c2cc3ccccc3[nH]2)CCN1 (stereo not drawn) [(1H-Indol-2-yl)-(3-methyl-piperazin-1-yl)-methanone]	100 nM
CC1CN(C(=O)c2cc3cc(Cl)ccc3[nH]2)CCN1 (stereo not drawn) [(5-Chloro-1H-indol-2-yl)-(3-methyl-piperazin-1-yl)-methanone]	41 nM
CN1CCN(C(=O)c2cc3cc(F)cc(F)c3[nH]2)CC1 [(5,7-Difluoro-1H-indol-2-yl)-(4-methyl-piperazin-1-yl)-methanone]	19 nM
C[C@@H]1CN(C(=O)c2cc3cc(Cl)ccc3[nH]2)CCN1 [(5-Chloro-1H-indol-2-yl)-((R)-3-methyl-piperazin-1-yl)-methanone]	34 nM
CN1CCN(C(=O)c2cc3c(Br)cccc3[nH]2)CC1 [(4-Bromo-1H-indol-2-yl)-(4-methyl-piperazin-1-yl)-methanone]	40 nM
CN1CCN(C(=O)c2cc3cc(Cl)cc(Cl)c3[nH]2)CC1 [(5,7-Dichloro-1H-indol-2-yl)-(4-methyl-piperazin-1-yl)-methanone]	10 nM
CN1CCN(C(=O)c2cc3cc([N+](=O)[O-])ccc3[nH]2)CC1 [(4-Methyl-piperazin-1-yl)-(5-nitro-1H-indol-2-yl)-methanone]	46 nM
CN1CCN(C(=O)c2cc3c(Cl)c(Cl)ccc3[nH]2)CC1 [(4,5-Dichloro-1H-indol-2-yl)-(4-methyl-piperazin-1-yl)-methanone]	11 nM
CC1CN(C(=O)c2cc3cc(Cl)ccc3[nH]2)CCN1C (stereo not drawn) [(5-Chloro-1H-indol-2-yl)-(3,4-dimethyl-piperazin-1-yl)-methanone]	27 nM
CN1CCN(C(=S)c2cc3ccccc3[nH]2)CC1 [(1H-Indol-2-yl)-(4-methyl-piperazin-1-yl)-methanethione]	132 nM
Cc1cc(C)c2[nH]c(C(=O)N3CCN(C)CC3)cc2c1 [(5,7-Dimethyl-1H-indol-2-yl)-(4-methyl-piperazin-1-yl)-methanone]	30 nM

Test system: mouse bone marrow-derived mast cells
Experiment: Histamine-induced mast cell chemotaxis in vitro (transwell)
Type: cell-based
Settings: Mus musculus, Mast cell
Description: Mast cells were differentiated from bone marrow derived from BALB/c or C57bl/6j mice. Mice were sacrificed by asphyxiation under 95% CO2 and femurs were removed. Bone marrow was aseptically isolated from the femurs. The cells (5×10^5/mL) were cultured at 37° C. with 5% CO2 in culture medium consisting of RPMI with 10% FCS, 0.1 mM non-essential amino acids, 50 μg/mL penicillin/streptomycin and 20% conditioned WEHI-3 medium. Conditioned WEHI-3 medium was prepared from WEHI-3 cells (ATCC), which were cultured in Iscoves Dulbeccos medium with 10% FCS, 4 mM L-glutamine, 1.5 g/L sodium carbonate, 0.05 μM beta-mercaptoethanol and 50 μg/mL penicillin/streptomycin. The filtered supernatant was used as the conditioned WEHI-3 medium. After 16 h in culture, the bone marrow cells were transferred to a new flask. The medium was refreshed once per week. After four weeks, the cells were tested by flow cytometry for IgE receptor and CD117 (c-kit) expression. Mast cells were incubated with anti-DNP IgE (ICN Pharmaceuticals, Costa Mesa, Calif.) or vehicle for 30 min, followed by FITC labeled anti-IgE (Pharmingen) or FITC labeled CD117 (Pharmingen) for 30 min on ice. The cultured mast cells consisted of a homogeneous population which was >99% IgE receptor positive and >99% CD117 positive. Mast cells of four to eight weeks culture time were used for experiments.
Transwells (Costar, Cambridge, Mass.) of a pore size of […] were coated with 100 μL of 100 ng/mL human fibronectin (Sigma) for 2 h at room temperature. […] Mast cells (2×10^5/well) were added to the top chamber. The plates were incubated for 3 h at 37° C. Transwells were removed and the number of cells in the bottom chamber was counted for 60 sec using a flow cytometer.

Structure (SMILES)	inhibition at 1 µM	inhibition at 10 µM
CN1CCN(C(=O)c2nc3cc(F)c(F)cc3[nH]2)CC1 [(5,6-Difluoro-1H-benzoimidazol-2-yl)-(4-methyl-piperazin-1-yl)-methanone]	72%	97%
Cc1csc2cc(C(=O)N3CCN(C)CC3)[nH]c12 [(4-Methyl-piperazin-1-yl)-(3-methyl-4H-thieno[3,2-b]pyrrol-5-yl)-methanone]	60%	–
Cc1ccc2[nH]c(C(=O)NC3CC4CCC(C3)N4C)nc2c1 (stereo not drawn) [5-Methyl-1H-benzoimidazole-2-carboxylic acid(8-methyl-8-aza-bicyclo[3.2.1]oct-3-yl)-amide]	66%	27%
CN1CCN(C(=O)c2cc3cc(F)cc(F)c3[nH]2)CC1 [(5,7-Difluoro-1H-indol-2-yl)-(4-methyl-piperazin-1-yl)-methanone]	100%	–
O=C(c1cc2cc(Cl)sc2[nH]1)N1CCN2CCCC2C1 (stereo not drawn) [(2-Chloro-6H-thieno[2,3-b]pyrrol-5-yl)-(hexahydro-pyrrolo[1,2-a]pyrazin-2-yl)-methanone]	0%	0%
O=C(c1cc2cc(Cl)ccc2[nH]1)N1CCNCC1 [(5-Chloro-1H-indol-2-yl)-piperazin-1-yl-methanone]	99%	–
CC1CN(C(=O)c2cc3scc(Br)c3[nH]2)CCN1 (stereo not drawn) [(3-Bromo-4H-thieno[3,2-b]pyrrol-5-yl)-(3-methyl-piperazin-1-yl)-methanone]	0%	0%
CN1CCN(C(=O)c2cc3cccc(N)c3[nH]2)CC1 [(7-Amino-1H-indol-2-yl)-(4-methyl-piperazin-1-yl)-methanone]	99%	–
O=C(c1nc2cc(Cl)ccc2[nH]1)N1CCNCC1 [(5-Chloro-1H-benzoimidazol-2-yl)-piperazin-1-yl-methanone]	8%	101%
Cc1cc(Cl)cc2cc(C(=O)N3CCN(C)CC3)[nH]c12 [(5-Chloro-7-methyl-1H-indol-2-yl)-(4-methyl-piperazin-1-yl)-methanone]	100%	97%
CN1CCN(C(=O)c2cc3cc(Cl)sc3[nH]2)CC1 [(2-Chloro-6H-thieno[2,3-b]pyrrol-5-yl)-(4-methyl-piperazin-1-yl)-methanone]	103%	106%
CN1CCN(C(=O)c2cc3sc(Cl)cc3[nH]2)CC1 [(2-Chloro-4H-thieno[3,2-b]pyrrol-5-yl)-(4-methyl-piperazin-1-yl)-methanone]	92%	–
